Reference: US11084830B2, “Five-membered non aromatic ring-pyrimidine HIV-1 reverse transcriptase inhibitor, preparation method therefor, and uses thereof” (priority 2018, dated 2021)

Assays:
[1] = tested on: NNRTI-resistant double-mutant strain K103N+Y181C (RES056); test: microbe, parasite or virus in culture; format: cell-based, HIV-1; settings: for EC50: Human immunodeficiency virus 1, MT4, read-out: EC50 RES056; for SI RES056: selectivity index, ratio of CC50/EC50, strain RES056
Method: (§1) Antiviral potency was evaluated in MT-4 cell cultures infected with WT HIV-1 strain (IllB) as well as cells infected with a panel of NNRTI-resistant double-mutant strain K103N+Y181C (RES056).
(§2) Selected compounds were screened for inhibitory activity against HIV-1 using MTT method as describe previously by Christophe. Pannecouque et al. Nat. Protoc. […] And in vitro anti-HIV activity of compounds were supported by Rega Institute for Medical Research. The MTT assay is based on the reduction of the yellow colored 3-(4,5-dimethylthiazol-2-yl)-2,5-diphenyltetrazolium bromide (MTT) by mitochondrial dehydrogenases of metabolically active cells to a blue formazan which can be measured spectrophotometrically. Tested optical density served as an indicator for live cells, and survival rate can be concluded by testing the optical density of 540 nm and 690 nm. MT-4 cells infected with HIV-1 can only survive for 5 to 7 days without any treatment, but when HIV-1 inhibitors were added, they can protect MT-4 cell from cytopathic. Serial solution of compounds was added to MT-4 cells after infected with HIV-1, MTT method was used to detect the survival rate after culture for 5 to 7 days.
(§3) (1) MT-4 cells infected with HIV-1 viral strains (IIIB, Y181C/K103N) were provided by Rega Institute for Medical Research, Katholieke Universiteit Leuven, Belgium.
(§4) (3) Preparation of compounds: Stock solutions (10×final concentration) of test compounds is diluted with double distilled H2O for 5 folds and 5 concentrations of one compound are prepared.
(§5) (5) Test method (MTT method): Serial five-fold dilutions of test compounds were added to cultured MT-4 cells infected with HIV-1, after 5 to 7 days, MTT was added and cultured for a few hours.
(§6) The MTT method was described briefly as follows: stock solutions (10×final concentration) of test compounds were added in 25 μL volumes to two series of triplicate wells in order to allow simultaneous evaluation of the effects on mock- and HIV-infected cells. Using a Biomek 3000 robot (Beckman Instruments, Fullerton, Calif.), serial five-fold dilutions of the test compounds (final 200 μL volume per well) were made directly in flat-bottomed 96-well microtiter trays, including untreated control HIV-1 and mock-infected cell samples for each sample. […] Mock-infected cells were used to evaluate the effect of test compounds on uninfected cells to assess cytotoxicity. Exponentially growing MT-4 cells were centrifuged for 5 min at 1000 rpm and the supernatant was discarded. […] At five days after infection, the viability of mock- and HIV-infected cells was determined spectrophotometrically by means of MTT assay.
(§7) The MTT assay is based on the reduction of yellow-colored MTT (Acros Organics, Geel, Belgium) by mitochondrial dehydrogenase of metabolically active cells to form a blue-purple formazan that can be measured spectrophotometrically. The absorbances were read in an eight-channel computer-controlled photometer, at the wavelengths of 540 and 690 nm. All data were calculated using the median optical density (OD) value of three wells.

mock-infected MT-4 cells = test: Cytotoxicity in mock-infected MT-4 cells, MTT method; format: cell-based; settings: human, 5 days
Method: (§8) The MTT method was described briefly as follows: stock solutions (10×final concentration) of test compounds were added in 25 μL volumes to two series of triplicate wells in order to allow simultaneous evaluation of the effects on mock- and HIV-infected cells. Using a Biomek 3000 robot (Beckman Instruments, Fullerton, Calif.), serial five-fold dilutions of the test compounds (final 200 μL volume per well) were made directly in flat-bottomed 96-well microtiter trays, including untreated control HIV-1 and mock-infected cell samples for each sample. HIV-1 (IIIB) and mutant HIV-1 strains stock (50 μL at 100-300 CCID50) or culture medium was added to either the infected or mock-infected wells of the microtiter tray. Mock-infected cells were used to evaluate the effect of test compounds on uninfected cells to assess cytotoxicity. Exponentially growing MT-4 cells were centrifuged for 5 min at 1000 rpm and the supernatant was discarded. The MT-4 cells were resuspended at 6×10^5 cells/mL, and 50 μL aliquots were transferred to the microtiter tray wells. At five days after infection, the viability of mock- and HIV-infected cells was determined spectrophotometrically by means of MTT assay.
as §7

[2] = as above; format: cell-based; settings: human, CC50
Method: as §8, §7

WT HIV-1 strain (IIIB) = test: Anti-HIV-1 activity in MT-4 cells, MTT method, wild-type strain IIIB; format: cell-based; settings: for SI IIIB: selectivity index, ratio of CC50/EC50, strain IIIB
Method: as §1, §2, §3, §4, §5, §6, §7

In the case of `Cc1cc(C#N)cc(C)c1Oc1nc(NC2CCN(Cc3ccc(S(N)(=O)=O)cc3)CC2)nc2c1CCC2` [Compound C1, 4-((4-((4-(4-cyano-2,6-dimethylphenoxy)-6,7-dihydro-5H-cyclopenta[d]pyrimidin-2-yl)amino)piperidin-1-yl)methyl)benzenesulfonamide], the EC50 [1] is reported as 25.8 nM, the “SI RES056” value [1] is reported as greater than 9091 and the CC50 (mock-infected MT-4 cells) is reported as greater than 234000 nM. The CC50 at 5 days [2] was greater than 200000 nM and the “fold more potent than ETR” value (WT HIV-1 strain (IIIB); EC50 against HIV-1 IIIB compared with ETR) was “about 4.6 fold”.

For `Cc1cc(C#N)cc(C)c1Oc1nc(NC2CCN(Cc3ccc(S(C)(=O)=O)cc3)CC2)nc2c1CSC2` [Compound D2, 3,5-dimethyl-4-((2-((1-(4-(methylsulfonyl)benzyl)piperidin-4-yl)amino)-5,7-dihydrothieno[3,4-d]pyrimidin-4-yl)oxy)benzonitrile], the EC50 [1] was 170 ± 32 nM, the “SI RES056” value [1] was 266 and the CC50 (mock-infected MT-4 cells) was 45300 ± 31100 nM. For the same molecule, the “SI IIIB” value (WT HIV-1 strain (IIIB)) was 11690.

In the case of `Cc1cc(C#N)cc(C)c1Oc1nc(NC2CCN(Cc3ccc([N+](=O)[O-])cc3)CC2)nc2c1SCC2` [Compound A5, 3,5-dimethyl-4-((2-((1-(4-nitrobenzyl)piperidin-4-yl)amino)-6,7-dihydrothieno[3,2-d]pyrimidin-4-yl)oxy)benzonitrile], the EC50 [1] is reported as 495 ± 1.3 nM, the “SI RES056” value [1] is reported as 12 and the CC50 (mock-infected MT-4 cells) is reported as 6180 ± 1740 nM. For the same molecule, the “SI IIIB” value (WT HIV-1 strain (IIIB)) was 770.

In the case of `Cc1cc(C#N)cc(C)c1Oc1nc(NC2CCN(Cc3ccc(C(N)=O)cc3)CC2)nc2c1COC2` [Compound B2, 4-((4-((4-(4-cyano-2,6-dimethylphenoxy)-5,7-dihydrofuro[3,4-d]pyrimidin-2-yl)amino)piperidin-1-yl)methyl)benzamide], the EC50 [1] is reported as 41.5 ± 9.9 nM, the “SI RES056” value [1] is reported as greater than 6039 and the CC50 (mock-infected MT-4 cells) is reported as greater than 250000 nM. It also gave a CC50 at 5 days [2] greater than 200000 nM and an EC50 (WT HIV-1 strain (IIIB); Human immunodeficiency virus 1, IIIB, MT4, read-out: EC50 IIIB) of 2 nM.
